Laboratory results: patent US10350199B2, “3-(1h-pyrrolo[2,3-b]pyridin-2-yl)-1h-indazoles and therapeutic uses thereof” (Samumed, LLC, priority 2015, dated 2019)

Key:
Format in all cases: cell-based
[1] = system: IL-6 (THP-1 human monocyte cell line); assay: IL-6 inhibition in LPS-stimulated THP-1 cells (HTRF); conditions: for EC50: IL-6 inhibition, LPS-stimulated THP-1 cells, HTRF; for inhibition at 10 µM: THP-1, read-out: percentage in parentheses beside EC50 >10 (IL-6 inhibition)
Summary of the method: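 THP-1 cells kept 24 h in 1% FBS medium, treated 2 h at 37 °C, then stimulated with 500 ng/mL LPS for another 22 h. IL-6 measured by HTRF as the 665/620 nm ratio; EC50 from a four-parameter fit normalized to DMSO controls.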

[2] = system: Wnt activity (Sp5-Luc reporter, SW480 colon carcinoma cells); assay: Wnt activity screening assay, Sp5-Luc reporter gene in SW480 cells; conditions: Homo sapiens; for EC50: Sp5-Luc reporter, SW480 cells, overnight incubation; for inhibition at 10 µM: SW480, read-out: percent inhibition at 10 μM
Summary of the method: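 SW480 cells stably transduced with lentiviral Sp5 promoter (eight TCF/LEF sites)-firefly luciferase, plated at 4,000 cells/well in 1% FBS medium and incubated overnight at 37° C. Luminescence read after BrightGlo addition, normalized to DMSO-only cells; EC50 from four-parameter variable-slope nonlinear regression.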

[3] = system: primary human fibroblasts derived from IPF patients (LL29 cells) treated with TGF-β1; assay: Inhibition of the fibrotic process: αSMA staining in TGF-β1 treated LL29 fibroblasts; conditions: Fibroblast; for EC50: 96 h, LL29 cells, TGF-β1 20 ng/mL, 4 days, % αSMA positive cells; for inhibition at 10 µM: read-out: percent inhibition at 10 μM
Summary of the method: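 IPF-patient-derived LL29 lung fibroblasts in F12 with 1% FBS, stimulated with TGF-β1 alongside compound; TGF-β1 plus DMSO wells served as controls. After 4 days, nuclei stained with 1 μM SYTOX green for 30 min at room temperature, alongside αSMA staining.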

[4] = system: primary human mesenchymal stem cells (hMSCs); assay: Induction of chondrogenesis in human mesenchymal stem cells (nodule area, Rhodamine B/Nile Red); conditions: hMSC chondrogenesis, relative to TGF-β3 (10 ng/mL) positive control, read-out: Max. Activity as % TGF-β3 activity
Summary of the method: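 Primary hMSCs at passage 3-6 were treated with compound; nodule area per well was normalized to the mean of 3 DMSO wells, averaged over 2-3 replicates, and the concentration giving 50% chondrogenesis relative to TGF-β3 control, plus maximum activity and its dose, was derived.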

[5] = system: SW480 colon cancer cells; assay: Cell viability assay (CellTiter-Blue), SW480 cells, four days; conditions: Homo sapiens; for EC50: 96 h, SW480 cell viability, four days, CellTiter-Blue; for inhibition at 10 µM: SW480, read-out: percent inhibition at 10 μM
Summary of the method: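 Fluorescence from resazurin reduced to resorufin by metabolically active cells was the read-out, taken after ~3 h with CellTiter-Blue.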

SMILES	EC50 [1]	EC50 [2]	EC50 [3]	Emax [4]	EC50 [5]	inhibition at 10 µM [1]	inhibition at 10 µM [2]	inhibition at 10 µM [3]	inhibition at 10 µM [5]
c1cnc2[nH]c(-c3n[nH]c4ccc(-c5cncc(OCCN6CCCC6)c5)cc34)cc2c1 [Compound 658, 5-(5-(2-(Pyrrolidin-1-yl)ethoxy)pyridin-3-yl)-3-(1H-pyrrolo[2,3-b]pyridin-2-yl)-1H-indazole]	0.205 µM	3.29 µM	1.2 µM	43%	3.94 µM	–	–	–	–
COc1cncc(-c2ccc3[nH]nc(-c4cc5c(-c6ccoc6)ccnc5[nH]4)c3c2)c1 [Compound 692, 3-(4-(Furan-3-yl)-1H-pyrrolo[2,3-b]pyridin-2-yl)-5-(5-methoxypyridin-3-yl)-1H-indazole]	> 10 µM	> 10 µM	> 10 µM	26%	> 10 µM	43.9%	20%	0%	0%
CN(C)Cc1cncc(-c2cc(F)c3[nH]nc(-c4cc5c(-c6cccc(F)c6)ccnc5[nH]4)c3c2)c1 [Compound 992, 1-(5-(7-Fluoro-3-(4-(3-fluorophenyl)-1H-pyrrolo[2,3-b]pyridin-2-yl)-1H-indazol-5-yl)pyridin-3-yl)-N,N-dimethylmethanamine]	> 10 µM	> 10 µM	> 10 µM	35%	> 10 µM	34.2%	17%	5.2%	3.6%
CN(C)Cc1cncc(-c2cc3c(-c4cc5c(-c6cccc(F)c6)ccnc5[nH]4)n[nH]c3cc2F)c1 [Compound 993, 1-(5-(6-Fluoro-3-(4-(3-fluorophenyl)-1H-pyrrolo[2,3-b]pyridin-2-yl)-1H-indazol-5-yl)pyridin-3-yl)-N,N-dimethylmethanamine]	0.852 µM	> 10 µM	1.63 µM	28%	2.4 µM	–	–	–	–
CN(C)Cc1cncc(-c2ccc3[nH]nc(-c4cc5c(-c6cccc(F)c6)ccnc5[nH]4)c3c2F)c1 [Compound 994, 1-(5-(4-Fluoro-3-(4-(3-fluorophenyl)-1H-pyrrolo[2,3-b]pyridin-2-yl)-1H-indazol-5-yl)pyridin-3-yl)-N,N-dimethylmethanamine]	> 10 µM	> 10 µM	4.9 µM	21%	> 10 µM	36.6%	20.8%	–	34.7%
